Data from patent publication US9220411B2, “In-vivo optical imaging method including analysis of dynamic images” (THE GENERAL HOSPITAL CORPORATION, priority 2006, dated 2015).

Assay: Dynamic in-vivo fluorescence imaging of dye biodistribution after tail vein injection
Set-up: species or system mouse
Excerpt: FIG. 1 illustrates one embodiment of a fluorescent dynamic optical imaging system 10 for imaging small animals such as mice. The imaging system 10 includes an optical detector 16 which is operable to acquire various images of the mouse. The imaging system 10 also includes a processor and display device 11 which is operable to generate and display other images of the mouse.
The system 10 also includes an imaging platform 12 for supporting a mouse in a desired arrangement, such as in a prone position or a supine position. In a preferred embodiment, mirrors 14 are arranged at 45 degree angles with respect to the imaging platform such that multiple views of the mouse, i.e., a top and/or bottom view, and side views of the mouse, are within the field of view of the optical detector 16, which is arranged above the imaging platform 12. Other embodiments can include other arrangements of optical detector 16 and mirrors to provide other views of the mouse. In one embodiment, the optical detector 16 is a cooled 14 bit charge coupled device (CCD) camera including a relay lens 19 and the field of view is approximately 9 cm by 9 cm. Thus, although the camera produces 2D images, these are “enhanced” 2D images since multiple views of the mouse are obtained.
Bifurcated liquid light guides 25 can be used to deliver light from the sources 18A, 18B to shine on the mouse. Other means can also be used. The light sources 18A, 18B and any corresponding filter elements are selected to have desired characteristics according to the optical contrast substances to be used in the imaging process. For example, when using a fluorescent dye such as indocyanine green (ICG) dye, light source 18A can include two laser diodes (160 mW total) to provide excitation light at 785 nm to excite the ICG dye. When using a fluorescent dye such as Dextran Texas Red dye, light source 18B can be a halogen light source, and a motorized filter wheel having a plurality of filter elements can be used to provide filtered light at a desired excitation wavelength range of 570 nm plus or minus 20 nm to excite the Dextran Texas Red dye. The respective light sources can be controlled by an electronic shutter in the 570 nm light path, or digital modulation of the laser diodes to allow synchronization of illumination with the filter elements, tunable filter, and image acquisition.
At process block 34, a second optical contrast substance is introduced or activated in the mouse. For example, a dye such as an ICG dye or a Dextran Texas Red dye can be used and can be injected into the tail vein of an anesthetized mouse. ICG dye is a good choice because it is widely available, clinically approved, and it excites and emits in the near infra-red (NIR) portion of the spectrum, which is advantageous in that light scatter is lower and penetration is higher at NIR wavelengths. In one embodiment, a dye consisting of 0.05 ml of 260 uM ICG dye (Cardiogreen, Fluka) is used. In another embodiment, […] of 360 uM of Dextran Texas Red dye (70,000 MW, Invitrogen) can be used.
At process block 38, a time series of anatomical image data sets of the second optical contrast substance is acquired using the optical detector, preferably while the animal is in the same desired arrangement. This should preferably be performed right after the second optical contrast is introduced. If the second optical contrast agent is a fluorescent dye, a light source having the appropriate spectral characteristics is applied to excite the fluorescent dye. […]

Structure (SMILES): CC1(C)C(/C=C/C=C/C=C/C=C2\N(CCCCS(=O)(=O)O)c3ccc4ccccc4c3C2(C)C)=[N+](CCCCS(=O)(=O)[O-])c2ccc3ccccc3c21 [ICG, indocyanine green]
- uptake by adipose tissue (mouse, longer timescales (25 minutes), preliminary data): late uptake by adipose tissue, remaining high after 25 minutes
- uptake by the liver (mouse, longer timescales, preliminary data): rapid and sustained uptake by the liver
- distribution of dye in the body (prone mouse, by 117 seconds after injection): distributed fairly diffusely throughout the mouse
- fluorescence signal, next organ distribution (prone mouse, tail vein injection, early images (first 15 seconds), after the lung phase): bright signal is seen in the brain, kidneys, spleen and spine
- fluorescence signal, initial organ distribution (prone mouse, tail vein injection, early images (first 15 seconds), initial circulation): initially the lungs are bright
